Data as given in patent US7973047B2, “Beta-Secretase modulators and methods of use” (Amgen Inc., priority 2010, dated 2011).
Read-outs that look alike come from different tables or passages of the source.

Test system: Aβ40 in conditioned medium of cells stably expressing Amyloid Precursor Protein (APP)
Experiment: BACE cell-based assay: Aβ40 in conditioned medium by sandwich ELISA
Summary of the method: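 Aβ40 in conditioned medium was read by time-resolved fluorescence sandwich ELISA (capture pAb40, detection biotinylated 6E10, 4° C incubations). Compounds were applied for 24 h to cells stably expressing APP, at 10 doses from 100 or 10 μM top, 0.1% DMSO. IC50 derived from percent of control.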

[1] = cell based assay data of Table 4, unit inferred, read-out: Cell Assay
[2] = cell based assay data, Table 4, unit inferred, read-out: Cell Assay

Molecule | IC50 [1] [nM] | IC50 [2] [nM] | further results
CC(=O)N[C@@H](Cc1cc2ccccc2o1)[C@H](O)CN[C@H]1CC2(CCC2)Oc2ncc(CC(C)(C)C)cc21 [compound 646, N-((1S,2R)-1-(1-benzofuran-2-ylmethyl)-3-(((4′S)-6′-(2,2-dimethylpropyl)-3′,4′-dihydrospiro[cyclobutane-1,2′-pyrano[2,3-b]pyridin]-4′-yl)amino)-2-hydroxypropyl)acetamide] | 52.9 | – | –
COc1ccc(C[C@H](NC(C)=O)[C@@H](O)CN[C@H]2CC3(CCC3)Oc3ncc(CC(C)(C)C)cc32)cc1F [compound 666] | 162 | – | –
CC(=O)N[C@@H](Cc1ccccc1)[C@H](O)CN[C@H]1CC2(CCC2)Oc2c1cc(CC(C)(C)C)cc2N1CCOCC1 [compound 537] | 1970 | – | –
CC(=O)N[C@H](Cc1cccc(Cl)c1F)[C@H](O)CN[C@H]1CC2(CCC2)Oc2ncc(CC(C)(C)C)cc21 [compound 866] | – | ≥ 10000 | –
C=C[C@H](NC(C)=O)[C@H](O)CN[C@H]1CC2(CCC2)Oc2ncc(CC(C)(C)C)cc21 [compound 740, N-((1S)-1-((1R)-2-(((4′S)-6′-(2,2-dimethylpropyl)-3′,4′-dihydrospiro[cyclobutane-1,2′-pyrano[2,3-b]pyridin]-4′-yl)amino)-1-hydroxyethyl)-2-propen-1-yl)acetamide] | – | 3330 | –
CC(=O)N[C@@H](Cc1cc(F)cc(Cl)c1)[C@H](O)CN[C@H]1CC2(CCC2)Oc2c1cc(CC(C)(C)C)nc2Cl [compound 752] | – | 42.2 | –
CC(=O)N[C@@H](Cc1ccnc(OCC(F)(F)F)c1)[C@H](O)CN[C@H]1CC2(CCC2)Oc2ncc(CC(C)(C)C)cc21 [compound 645, N-((1S,2R)-3-(((4′S)-6′-(2,2-dimethylpropyl)-3′,4′-dihydrospiro[cyclobutane-1,2′-pyrano[2,3-b]pyridin]-4′-yl)amino)-2-hydroxy-1-((2-((2,2,2-trifluoroethyl)oxy)-4-pyridinyl)methyl)propyl)acetamide] | 5.16 | – | –
CC(=O)N[C@@H](Cc1ccc(Br)cc1)[C@H](O)CN[C@H]1CC2(CCC2)Oc2ncc(CC(C)(C)C)cc21 [compound 872] | – | 34.5 | –
CC(C)(C)Cc1cnc2c(c1)[C@@H](NC[C@@H](O)[C@H](Cc1ccc(F)cc1)NC(=O)C(F)(F)F)CC1(CCC1)O2 [compound 631] | 57 | – | –
CC(=O)N[C@@H](Cc1cc(F)cc(F)c1)[C@H](O)CN[C@H]1CC2(CCC2)Oc2ccc(N3CCC3=O)cc21 [compound 795] | – | 255 | –
CC(=O)N[C@@H](Cc1cc(F)cc(F)c1)[C@H](O)CN[C@H]1C[C@@]2(CCOC2)Oc2c(Br)cc(Cl)cc21 [Example 249] | – | – | IC50 (cells stably expressing APP, 24 h incubation with compound, Aβ40 in supernatant by sandwich ELISA, read-out: IC50 values in the cell-based assay (inhibition or reduction of Aβ40)): ≤ 5000 nM
CC(=O)N[C@@H](Cc1ccc(F)c(Cl)c1)[C@H](O)CN[C@H]1CC2(CCC2)Oc2ncc(CC(C)(C)C)cc21 [compound 706] | 3.11 | – | –
CC(=O)N[C@@H](Cc1cccc(C(N)=O)c1)[C@H](O)CN[C@H]1CC2(CCC2)Oc2ncc(CC(C)C)cc21 [compound 848] | – | 12.8 | –
CC(=O)N[C@@H](Cc1cccc(F)c1F)[C@H](O)CN[C@H]1CC2(CCC2)Oc2ncc(CC(C)(C)F)cc21 [compound 833] | – | 31 | –
CC(=O)N[C@@H](Cc1ccc(F)cc1)[C@H](O)CN[C@H]1C[C@]2(CC[C@@H]2C)Oc2ncc(CC(C)(C)C)cc21 [compound 619] | 32.6 | – | –
CC(=O)N[C@@H](Cc1ccc(F)cc1)[C@H](O)CN[C@H]1CC2(CCC2)Oc2c1cc(CC(C)(C)C)cc2N1CCOCC1 [compound 536] | 2090 | – | –
N-((1S,2R)-3-(((3S,4′S)-6′-(2,2-dimethylpropyl)-3′,4,4′,5-tetrahydrospiro[furan-3,2′-pyrano[2,3-b]pyridin]-4′-yl)amino)-1-((4-fluorophenyl)methyl)-2-hydroxypropyl)acetamide N-((1S,2R)-3-(((3R,4′S)-6′-(2,2-dimethylpropyl)-3′,4,4,5-tetrahydrospiro[furan-3,2′-pyrano[2,3-b]pyridin]-4′-yl)amino)-1-((4-fluorophenyl)methyl)-2-hydroxypropyl)acetamide [compound 658] | 20.2 | – | –
CC(=O)N[C@@H](Cc1ccccc1)[C@H](O)CN[C@H]1CC2(CCC2)Oc2ccc(NC3CCCC3)cc21 [compound 771] | – | 166 | –
CC(=O)N[C@@H](Cc1ccc(F)c(C)c1)[C@H](O)CN[C@H]1CC2(CCC2)Oc2ncc(CC(C)(C)F)cc21 [compound 578] | 28.5 | – | –
CC(=O)N[C@@H](Cc1cccc(F)c1)[C@H](O)CN[C@H]1CC2(CCC2)Oc2ncc([C@H](F)C(C)(C)C)cc21 [compound 678] | 2.07 | – | –
CC(=O)N[C@@H](Cc1ccc(Cl)cc1)[C@H](O)CN[C@H]1CC2(CCC2)Oc2nc(F)c(CC(C)(C)C)cc21 [compound 667] | 385 | – | –
CC(=O)N[C@@H](Cc1cc(F)cc(F)c1)[C@H](O)CN[C@H]1CC(C)(C)Nc2ccc(CC(C)(C)C)cc21 [compound 693] | 5.49 | – | –
CC(=O)N[C@@H](Cc1ccc(F)cc1)[C@H](O)CN[C@@H]1c2cc(CC(C)(C)C)cnc2N2CCC[C@@H]12 [compound 683] | 524 | – | –
CC(=O)N[C@@H](Cc1ccc(F)cc1)[C@H](O)CN[C@H]1CC2(CCC2)Oc2ncc(Cc3ccccc3)cc21 [compound 818] | – | 1800 | –

Molecule | IC50 [1] [nM] | IC50 [2] [nM] | further results
CC(=O)N[C@@H](Cc1cc(F)cc(F)c1)[C@H](O)CN[C@H]1CC2(CCC2)Oc2c1cc(CC(C)(C)C)nc2N(C)C [compound 598] | 26.8 | – | –
CC(=O)N[C@@H](Cc1ccc(F)cc1)[C@H](O)CN[C@H]1CC2(CCC2)Oc2ncc([C@@H](F)C(C)C)cc21 [compound 553] | 272 | – | –
CC(=O)N[C@@H](Cc1cccc(F)c1)[C@H](O)CN[C@H]1CC2(CCC2)Oc2ncc(CC(C)C)cc21 [compound 844] | – | 3.63 | –
CC(=O)N[C@@H](Cc1cc(F)cc(F)c1)[C@H](O)CN[C@@H]1CC2(CCC2)Oc2c1cc(CC(C)(C)C)nc2OC(C)C [compound 611] | 161 | – | –
CCc1cc(NC)c2c(c1)[C@@H](NC[C@@H](O)[C@H](Cc1ccccc1)NC(C)=O)CC(C)(C)O2 [compound 535] | 924 | – | –
CC(=O)N[C@@H](Cc1cccc(F)c1)[C@H](O)CN[C@H]1CC2(CCC2)Oc2cnc(CC(C)(C)F)cc21 [compound 827] | – | 25.8 | –
CC(=O)N[C@@H](Cc1cc(F)cc(F)c1)[C@H](O)CN[C@H]1CC2(CCC2)Oc2ccc(-c3ccn(C)n3)cc21 [compound 784] | – | 1650 | –
N-((1S,2R)-3-(((4R)-6-(2,2-dimethylpropyl)-2,2-dimethyl-1,2,3,4-tetrahydro-4-quinolinyl)amino)-2-hydroxy-1-(phenylmethyl)propyl)acetamide N-((1S,2R)-3-(((4S)-6-(2,2-dimethylpropyl)-2,2-dimethyl-1,2,3,4-tetrahydro-4-quinolinyl)amino)-2-hydroxy-1-(phenymethyl)propyl)acetamide [compound 689] | 72.8 | – | –
CC(=O)N[C@@H](Cc1ccc(F)cc1)[C@H](O)CN[C@H]1C[C@]2(CCOC2)Oc2ncc(CC(C)(C)C)cc21 [compound 672] | 23.8 | – | –
CC(=O)N[C@@H](Cc1ccc(F)cc1)[C@H](O)CN[C@H]1CC(C)(C)Oc2ncc(CC(C)(C)C)cc21 [compound 572] | 13.8 | – | –
CC(=O)N[C@@H](Cc1cccc(F)c1)[C@H](O)CN[C@H]1CC2(CCC2)Oc2nc(F)c(CC(C)(C)C)cc21 [compound 661] | 10.2 | – | –
CC(=O)N[C@@H](Cc1ccc(F)cc1)[C@H](O)CN[C@@H]1CC2(CCC2)Oc2c1cc(CC(C)(C)C)nc2OC(C)C [compound 607] | 80.3 | – | –
CC(=O)N[C@@H](Cc1ccc(F)cc1)[C@H](O)CN[C@H]1CC2(CCC2)Oc2c1cc(CC(C)(C)C)nc2NC1CC1 [compound 586] | 14 | – | –
CC(=O)N[C@@H](Cc1cccc(F)c1F)[C@H](O)CN[C@H]1CC2(CCC2)Oc2ncc(CC(C)(C)C)cc21 [compound 825] | – | 4.34 | –
COCC(=O)N[C@@H](Cc1ccc(F)cc1)[C@H](O)CN[C@H]1CC2(CCC2)Oc2ncc(CC(C)(C)C)cc21 [compound 628] | 10.5 | – | –
CC(=O)N[C@@H](Cc1ccc(F)cc1)[C@H](O)CN[C@H]1CC2(CCC2)Oc2c1cc(CC(C)(C)C)nc2NC(C)(C)C [compound 589] | 615 | – | –
CC(=O)N[C@@H](Cc1ccc(F)cc1)[C@H](O)CN[C@H]1CC2(CCC2)Oc2nc(F)c(CC(C)(C)C)cc21 [compound 662] | 94.7 | – | –
CC(=O)N[C@@H](Cc1cccc(F)c1)[C@H](O)CN[C@H]1CC2(CCC2)Oc2cnc(CC(C)(C)C)cc21 [compound 569] | 5.22 | – | –
CC(=O)N[C@@H](Cc1ccc(F)cc1)[C@H](O)CN[C@H]1CC2(CCC2)Oc2ncc(CC3CCC3)cc21 [compound 682] | 66.5 | – | –
CC(=O)N[C@@H](Cc1ccc(Cl)cc1)[C@H](O)CN[C@H]1CC2(CC2)Oc2ncc(CC(C)(C)C)cc21 [compound 580] | 120 | – | –
CC(=O)N[C@@H](Cc1ccc(Cl)cc1)[C@H](O)CN[C@H]1CC2(CCC2)Oc2ncc([C@H](F)C(C)(C)C)cc21 [compound 680] | 23.1 | – | –
CC(=O)N[C@@H](Cc1ccccc1)[C@H](O)CN[C@H]1CC2(CCC2)Oc2ncc(CC(F)(F)F)cc21 [compound 841, N-((1S,2R)-2-hydroxy-1-(phenylmethyl)-3-(((4′S)-6′-(2,2,2-trifluoroethyl)-3′,4′-dihydrospiro[cyclobutane-1,2′-pyrano[2,3-b]pyridin]-4′-yl)amino)propyl)acetamide] | – | 84.8 | –
CC(=O)N[C@@H](Cc1cc(F)cc(Cl)c1)[C@H](O)CN[C@H]1CC2(CCC2)Oc2ncc(CC(C)(C)F)cc21 [compound 837] | – | 3.58 | –
CC(=O)N[C@@H](Cc1ccc(F)cc1)[C@H](O)CN[C@H]1C[C@@]2(CC[C@H]2C)Oc2ncc(CC(C)(C)C)cc21 [compound 621] | ≥ 10000 | – | –
